# In ChEMBL document CHEMBL2429815, “Synthesis of 5-benzyl-4-aryl-octahydro-1H-benzo[b][1,5]diazepin-2-ones as potent antidepressant and antimicrobial agents” (Med Chem Res, 2013):
# Legend:
# Escherichia coli = assay: Antibacterial activity against Escherichia coli ATCC 35218 assessed as growth inhibition at 10 ug/ml by disc diffusion method; type: functional; settings: read-out: IZ
# Rattus norvegicus [1] = assay: Neurotoxicity in rat assessed as minimal motor impairment by measuring coordination time at 100 mg/kg, ip 30 mins prior to testing by rotarod method; type: toxicity, organism-based; design: dose 100 mg/kg, route intraperitoneal; settings: in vivo, 0.5 h
# Pseudomonas aeruginosa = assay: Antibacterial activity against Pseudomonas aeruginosa ATCC 9027 assessed as growth inhibition at 10 ug/ml by disc diffusion method; type: functional; settings: read-out: IZ
# Staphylococcus aureus = assay: Antibacterial activity against Staphylococcus aureus ATCC 6538 assessed as growth inhibition at 10 ug/ml by disc diffusion method; type: functional; settings: read-out: IZ
# Rattus norvegicus [2] = assay: Antidepressant activity in Albino rat assessed as reduction in immobility duration at 20 mg/kg, ip measured during 5 mins by forced swim test relative to control; type: functional; design: scale not given: the % may be the effect or the level left; settings: route intraperitoneal
# Bacillus subtilis = assay: Antibacterial activity against Bacillus subtilis ATCC […] assessed as growth inhibition at 10 ug/ml by disc diffusion method; type: functional; settings: read-out: IZ
SMILES,zone of inhibition at 10 µg/mL (Escherichia coli) [mm],Time (Rattus norvegicus [1]) [s],zone of inhibition at 10 µg/mL (Pseudomonas aeruginosa) [mm],zone of inhibition at 10 µg/mL (Staphylococcus aureus) [mm],Activity (Rattus norvegicus [2]) [%],zone of inhibition at 10 µg/mL (Bacillus subtilis) [mm]
O=C1CC(c2ccccc2)N(Cc2ccccc2)C2CCCCC2N1 (configuration not stated),5,100.33,6,9,81.56,6
O=C1CC(c2ccccc2Cl)N(Cc2ccccc2)C2CCCCC2N1 (configuration not stated),4,95.17,9,8,78.23,4
O=C1CC(c2ccccc2Br)N(Cc2ccccc2)C2CCCCC2N1 (configuration not stated),6,91.33,5,15,71.1,6
O=C1CC(c2ccc(Br)cc2)N(Cc2ccccc2)C2CCCCC2N1 (configuration not stated),5,93.67,8,10,85.82,5
O=C1CC(c2ccc(Cl)cc2)N(Cc2ccccc2)C2CCCCC2N1 (configuration not stated),3,90.83,4,10,88.03,3
COc1ccc(C2CC(=O)NC3CCCCC3N2Cc2ccccc2)cc1OC (configuration not stated),8,96.5,5,7,89.03,7
COc1ccc(C2CC(=O)NC3CCCCC3N2Cc2ccccc2)cc1 (configuration not stated),5,97.83,7,12,86.4,3
O=C1CC(c2ccc([N+](=O)[O-])cc2)N(Cc2ccccc2)C2CCCCC2N1 (configuration not stated),4,93.5,9,15,89.44,6
O=C1CC(c2cccc([N+](=O)[O-])c2)N(Cc2ccccc2)C2CCCCC2N1 (configuration not stated),4,92.34,7,10,85.82,3
O=C1CC(c2coc3ccccc3c2=O)N(Cc2ccccc2)C2CCCCC2N1 (configuration not stated),5,97.17,5,8,83.56,4
O=C1CC(c2cc3ccccc3nc2Cl)N(Cc2ccccc2)C2CCCCC2N1 (configuration not stated),6,98.33,6,13,85.27,6
O=C(O)c1cn(C2CC2)c2cc(N3CCNCC3)c(F)cc2c1=O [CIPROFLOXACIN],9,,12,18,,9
CN(C)CCCN1c2ccccc2CCc2ccc(Cl)cc21 [CLOMIPRAMINE],,110.83,,,92.21,
